The results in this text go back to ChEMBL document CHEMBL1136422, “Synthesis, in vitro, and in vivo evaluation of phosphate ester derivatives of combretastatin A-4” (Bioorg Med Chem Lett, 2003).

pIC50: −log10 of the molar value.

A short description of experiment [1]: In vitro cytotoxicity evaluated in mouse heart endotheliaoma cell (MHEC5-T) after incubation of the cells for 5 days. In kind it is functional, cell-based. To be noted: 120 h.
Experiment [2] relates to Mus musculus. Briefly: Vascular shutdown expressed as vessel density decrease in percent of the control at the dose of 100 mg/kg. The format is functional.
Experiment [3] can be described thus: In vitro cytotoxicity evaluated in mouse heart endotheliaoma cell (MHEC5-T) after incubation of the cells for 1 hr. The format is functional, cell-based.
Experiment [4] deals with HT-29. Kind of experiment: Cytotoxicity evaluated against colon cancer cell line (HT-29). In kind it is functional, cell-based. To be noted: Homo sapiens.

For the compound `COc1ccc(/C=C\c2cc(OC)c(OC)c(OC)c2)cc1OP(=O)([O-])Oc1cc(/C=C\c2cc(OC)c(OC)c(OC)c2)ccc1OC.[Na+]`, the figures for the pIC50 in experiment [1] and in experiment [3] were 6.29 and less than 4.60, respectively. In addition, the “Vessel density decrease vs control” value in experiment [2] came out at 0%.
On the same counts, the results for `COc1ccc(/C=C\c2cc(OC)c(OC)c(OC)c2)cc1OP(=O)(O)OC1CCCCC1.N` are 5.52, less than 4.60 and 0%.
On to `CCCCCCCCOP(=O)(O)Oc1cc(/C=C\c2cc(OC)c(OC)c(OC)c2)ccc1OC.N`, for which the pIC50 in experiment [1] is 7.15; in experiment [3], 4.60. Besides, the “Vessel density decrease vs control” value in experiment [2] turned out to be 89%.
Consider `COc1ccc(/C=C\c2cc(OC)c(OC)c(OC)c2)cc1OP(=O)(O)OCC(F)(F)F.N`, for which the pIC50 was 7.22 in experiment [1] and 5.00 in experiment [3]. Moreover, the “Vessel density decrease vs control” value in experiment [2] was 0%.
Turning to `COc1ccc(/C=C\c2cc(OC)c(OC)c(OC)c2)cc1OP(=O)(OC)OC`, the values for the pIC50 in experiment [1] and in experiment [3] were 6.89 and 4.46, respectively. In experiment [2], the “Vessel density decrease vs control” value was determined as 20%.
On the same counts, the results for `CCCCOP(=O)(OCCCC)Oc1cc(/C=C\c2cc(OC)c(OC)c(OC)c2)ccc1OC` are 6.59, 5.10 and 0%.
On the same counts, the results for `COc1ccc(/C=C\c2cc(OC)c(OC)c(OC)c2)cc1OP(=O)(O)OC.N` are 7.15, 4.42 and 0%.
On the same counts, the results for `COc1ccc(/C=C\c2cc(OC)c(OC)c(OC)c2)cc1OP(=O)(O)Oc1cccc(Cl)c1.N` are 5.52, less than 4.60 and 90%.
With `COc1ccc(/C=C\c2cc(OC)c(OC)c(OC)c2)cc1OCCCS(=O)(=O)[O-].[Na+]`, the negative logarithm of the IC50 (pIC50) in experiment [1] and in experiment [3] was less than 4.60 throughout. In addition, in experiment [2], the “Vessel density decrease vs control” value is 10%.
On to `COc1ccc(/C=C\c2cc(OC)c(OC)c(OC)c2)cc1O` [COMBRETASTATIN A4], for which the pIC50 in experiment [1] was 8.40; in experiment [3], 5.98. The “Vessel density decrease vs control” value in experiment [2] is on record as 71%.
Regarding `COc1ccc(/C=C\c2cc(OC)c(OC)c(OC)c2)cc1OP(=O)([O-])[O-].[Na+].[Na+]` [FOSBRETABULIN DISODIUM], the figures for the pIC50 in experiment [4], in experiment [1] and in experiment [3] were 6.70, 8.70 and 6.10, respectively. The “Vessel density decrease vs control” value in experiment [2] was found to be 88%.
